The source of these data is paper PMC12417329 (Food Science & Nutrition, 2025).

In experiment [1] the target is T1, jack bean urease (JBU) (Canavalia ensiformis, UniProt P07374).
T1 construct: Jack bean urease (JBU) (Type III, 40.3 U/mg) were offered by Sigma; purchased Sigma Type III, 40.3 U/mg (catalogue number not given)
Kind of experiment: biochemical.

In experiment [2] the target is T2, H. pylori urease (HPU) (Helicobacter pylori, UniProt P69996).
T2 construct: endogenous in cells; host or cells: Helicobacter pylori ATCC 43504 (extract, method of Matsubara et al. 2003)
T2 sequence (P69996 whole entry): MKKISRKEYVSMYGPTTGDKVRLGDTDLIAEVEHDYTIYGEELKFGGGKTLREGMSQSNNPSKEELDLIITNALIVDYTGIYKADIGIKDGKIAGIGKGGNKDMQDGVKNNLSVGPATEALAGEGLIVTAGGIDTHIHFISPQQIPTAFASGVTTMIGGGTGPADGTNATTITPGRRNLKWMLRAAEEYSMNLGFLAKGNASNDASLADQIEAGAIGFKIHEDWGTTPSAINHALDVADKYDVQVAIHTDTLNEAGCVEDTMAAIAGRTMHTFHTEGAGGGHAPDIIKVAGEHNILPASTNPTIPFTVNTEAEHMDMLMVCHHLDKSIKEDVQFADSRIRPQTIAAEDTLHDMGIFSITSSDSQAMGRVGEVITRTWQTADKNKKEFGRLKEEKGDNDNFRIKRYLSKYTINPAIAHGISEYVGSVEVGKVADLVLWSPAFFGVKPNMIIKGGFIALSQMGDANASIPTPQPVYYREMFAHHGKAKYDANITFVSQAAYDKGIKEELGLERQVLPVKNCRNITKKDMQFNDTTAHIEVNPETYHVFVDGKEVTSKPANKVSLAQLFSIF
T2 sequence (P14916 whole entry, further chain): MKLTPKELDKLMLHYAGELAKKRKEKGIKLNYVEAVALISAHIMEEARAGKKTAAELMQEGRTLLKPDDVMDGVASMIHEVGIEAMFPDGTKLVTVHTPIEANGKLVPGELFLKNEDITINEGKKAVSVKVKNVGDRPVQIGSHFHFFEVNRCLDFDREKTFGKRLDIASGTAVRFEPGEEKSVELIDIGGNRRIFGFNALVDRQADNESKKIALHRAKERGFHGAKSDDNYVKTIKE
Kind of experiment: Urease inhibition type and kinetics (Lineweaver-Burk plots, progress curves). Type of experiment: biochemical. As for the experimental part:
(§1) The Lineweaver‐Burk plots were applied to calculate the change in the Michaelis constant (K M) and maximum velocity (V max). […] Additionally, the inhibition constant was derived by secondary replotting of Lineweaver‐Burk plots. All tests were performed in triplicate.
(§2) Enzyme activity in both procedures was measured as outlined in Section 2.4. Subsequently, the curve fitting software was used to fit the data according to the following formula: Pt=VS×t+V0−VS(1−e^−kapp×t)/kapp^−1 where, P(t) is the amount of product accumulated after t minutes of reaction, V 0 is the velocity at the start of the reaction, V S is the velocity at which the reaction reaches equilibrium, and kapp is the apparent velocity constant (Breitenbach and Hausinger [1988]). The experiments were repeated three times.

Experiment [3] has as its target T1, jack bean urease (JBU). The experiment is described as above. Type of experiment: biochemical. As for the experimental part: as §1, §2
Experiment [4] deals with Helicobacter pylori strains (ATCC 43504, HP1869, HP1870). Kind of experiment: Minimal inhibitory concentration assay (agar dilution). In kind it is cell-based. To be noted: ATCC43504, 120 h, pH 7.2, 5 days. As for the experimental part:
(§3) The standard strain H. pylori strains (ATCC 43504) were cultured on Mueller‐Hinton agar supplemented with 5% sheep blood. Bacterial cultures were maintained for 72 h at 37°C in a microaerophilic environment (5% O2, 10% CO2, 85% N2). For urease extraction, bacterial cells were harvested by centrifugation (5000×g, 10 min, 4°C) and subsequently washed three times with phosphate‐buffered saline (pH 7.4). Following turbidity adjustment using McFarland standards, H. pylori urease was prepared via a method established by Matsubara et al. ([2003]).
After solidification and overnight storage at 4°C to confirm sterility, plates showing no contamination were inoculated with 100 μL of H. pylori suspension (adjusted to McFarland 1.0 standard) and incubated microaerophilically (85% N2, 10% CO2, 5% O2) at 37°C for 5 days.

For experiment [5], the target named is T2, H. pylori urease (HPU). Kind of experiment: Reactivation of PIC-deactivated urease by GSH. Type of experiment: biochemical. As for the experimental part:
(§4) After 20 min, half of the reaction solution was removed and added to 1.25 mM GSH solution. Enzyme activity was determined before and after the addition of GSH. After co‐incubation for different periods, the residual enzyme activity in the mixtures was detected as described in Section 2.4.

The target of experiment [6] is T1, jack bean urease (JBU). Put plainly: Reactivation of PIC-deactivated urease by GSH. In kind it is biochemical. As for the experimental part: as §4
Experiment [7] has as its target T2, H. pylori urease (HPU). Put plainly: Urease inhibition test (Berthelot, ammonia at 595 nm). Type of experiment: biochemical. As for the experimental part:
as §3
Urease activity was measured using spectrophotometry. The reaction was initiated by blending a particular amount of enzyme‐containing solution and 150 mM urea in 20 mM HEPES buffer (pH 7.5) at 37°C. Following 20 min, the Berthelot reagent was applied, and the quantity of ammonia produced by the urease‐urea reaction was detected at 595 nm (Wu et al. [2013]). The control group represented the activity of the uninhibited enzyme, which is 100% active. […]
Then 150 mM urea was added, and the reaction was carried out in the dark for 20 min. Afterward, the Berthelot reagent was added, and the quantity of ammonia produced by the urease‐urea reaction was detected at 595 nm. The residual enzyme activity (RA%) was calculated using the formula: RA% = activity with inhibitor/activity without inhibitor × 100%. […]

In experiment [8] the test system is HPU. As to conditions: ref Xiao et al. [2007]; cited from earlier work.
Experiment [9] relates to JBU. As to conditions: cited from earlier work.
[10] abbreviates: Lineweaver-Burk plot, progress curves.
[11] abbreviates: PIC-inactivated urease after adding 1.25 mM GSH.
[12] abbreviates: co-incubation with 1.5 mM PIC for 20 min.
Where [13] appears, read: 20 min preincubation at 37°C, 150 mM urea, pH 7.5, read-out: IC50.

The structures appear in SMILES notation. Values after ≈ are worked out from the molar mass of the structure shown. “Also recorded” adds a separate entry of the source. Read-outs that look alike come from different tables or passages of the source.

T1 sequence (P07374 whole entry, looked up): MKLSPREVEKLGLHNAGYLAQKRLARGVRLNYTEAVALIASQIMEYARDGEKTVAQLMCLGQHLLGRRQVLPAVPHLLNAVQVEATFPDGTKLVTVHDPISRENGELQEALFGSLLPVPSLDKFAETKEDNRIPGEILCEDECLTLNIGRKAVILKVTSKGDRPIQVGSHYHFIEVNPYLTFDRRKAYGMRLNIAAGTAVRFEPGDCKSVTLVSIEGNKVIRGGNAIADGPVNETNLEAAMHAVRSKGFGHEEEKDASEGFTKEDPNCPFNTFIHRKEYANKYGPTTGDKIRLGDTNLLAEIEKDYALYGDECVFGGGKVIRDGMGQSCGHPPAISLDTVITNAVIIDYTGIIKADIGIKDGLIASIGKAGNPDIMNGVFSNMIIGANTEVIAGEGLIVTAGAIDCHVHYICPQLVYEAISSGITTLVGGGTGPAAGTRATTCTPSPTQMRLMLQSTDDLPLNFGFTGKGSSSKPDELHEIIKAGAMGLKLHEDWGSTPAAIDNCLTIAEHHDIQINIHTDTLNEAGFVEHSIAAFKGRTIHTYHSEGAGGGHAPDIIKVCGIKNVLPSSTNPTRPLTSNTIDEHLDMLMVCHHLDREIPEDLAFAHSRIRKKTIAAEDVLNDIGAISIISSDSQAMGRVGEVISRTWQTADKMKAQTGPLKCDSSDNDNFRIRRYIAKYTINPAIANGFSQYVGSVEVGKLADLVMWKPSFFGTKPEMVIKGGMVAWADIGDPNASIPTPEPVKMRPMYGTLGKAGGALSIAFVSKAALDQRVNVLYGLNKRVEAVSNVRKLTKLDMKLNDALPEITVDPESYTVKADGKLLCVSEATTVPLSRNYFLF

Consider `Oc1cc(O)cc(/C=C/c2ccc(O)c(O)c2)c1` [PIC, Piceatannol], for which the IC50 in experiment [1] stood at 470 ± 10 µM; in experiment [7], 670 ± 20 µM. Also, the values for the Ki in experiment [2] and in experiment [3] were 630 ± 20 µM and 340 ± 50 µM, respectively. Moreover, the inhibition type entry is given as “slow‐binding, mixed inhibitor; also recorded: mixed‐type inhibitor; also recorded: slow‐binding inhibition” in [2] (setting [10]) and “slow‐binding, non‐competitive inhibitor; also recorded: non‐competitive type; also recorded: slow‐binding inhibition” in experiment [3] (setting [10]). Moreover, the “inhibitory constant Kis” value in experiment [2] (secondary replot of Lineweaver-Burk intercepts) worked out at 0.94 ± 0.01 mM. For the same molecule, the MIC in experiment [4] (pH 7.2, clinical strain HP1869, Mueller-Hinton agar) came out at 100 µg/mL (≈ 409 µM); in experiment [4] (pH 7.2, clinical strain HP1870, Mueller-Hinton agar) it was 100 µg/mL (≈ 409 µM); in experiment [4] (pH 7.2, strain ATCC 43504 (standard strain), Mueller-Hinton agar) it was 150 µg/mL (≈ 614 µM). The reversibility of inactivation result in [5] (GSH reactivation) and in [6] (GSH reactivation) was “reversible” each time. Moreover, the “urease activity restored, of the initial activity” value in experiment [5] (setting [11]) and in experiment [6] (setting [11]) was “about 60%” throughout. Also, the initial activity lost result in experiment [5] (setting [12]) and in [6] (setting [12]) was “approximately 80%” in each case.

Regarding `O=c1c(-c2ccc(O)cc2)coc2c(O)c(O)ccc12` [7,8,4′‐trihydroxyisoflavone], the IC50 in [8] was 140 µM.

Take `CC(=O)NO` [AHA, Acetohydroxamic acid, reference compound]: the IC50 in experiment [1] (setting [13]) was found to be 20 µM; in [7] (setting [13]), 80 µM.

For `O=C(O)[C@H]1O[C@@H](Oc2cc3oc(-c4ccccc4)cc(=O)c3c(O)c2O)[C@H](O)[C@@H](O)[C@@H]1O` [Baicalin], the IC50 in [9] (ref Tan et al. [2013], Yu et al. [2015]) was 2740 ± 510 µM.

`O=C(O)[C@H]1O[C@@H](Oc2cc3oc(-c4ccc(O)cc4)cc(=O)c3c(O)c2O)[C@H](O)[C@@H](O)[C@@H]1O` [scutellarin]: in [9] (ref Wu et al. [2013]), the IC50 was 1350 ± 150 µM.
